{
  "source": "paper PMC7758399",
  "about": "“Phosphoglucoisomerase Is an Important Regulatory Enzyme in Partitioning Carbon out of the Calvin-Benson Cycle” (Frontiers in Plant Science, 2020)",
  "type_in_all_cases": "biochemical",
  "key": {"plastidic AtPGI (PGI1) [1]": {"target": "T1, plastidic AtPGI (PGI1) (Arabidopsis thaliana, UniProt Q8H103)", "T1 construct": "N-terminal His-tag, plastid targeting peptide removed, pET11a, E. coli BL21, Ni-NTA purified", "T1 sequence (Q8H103 49-613)": "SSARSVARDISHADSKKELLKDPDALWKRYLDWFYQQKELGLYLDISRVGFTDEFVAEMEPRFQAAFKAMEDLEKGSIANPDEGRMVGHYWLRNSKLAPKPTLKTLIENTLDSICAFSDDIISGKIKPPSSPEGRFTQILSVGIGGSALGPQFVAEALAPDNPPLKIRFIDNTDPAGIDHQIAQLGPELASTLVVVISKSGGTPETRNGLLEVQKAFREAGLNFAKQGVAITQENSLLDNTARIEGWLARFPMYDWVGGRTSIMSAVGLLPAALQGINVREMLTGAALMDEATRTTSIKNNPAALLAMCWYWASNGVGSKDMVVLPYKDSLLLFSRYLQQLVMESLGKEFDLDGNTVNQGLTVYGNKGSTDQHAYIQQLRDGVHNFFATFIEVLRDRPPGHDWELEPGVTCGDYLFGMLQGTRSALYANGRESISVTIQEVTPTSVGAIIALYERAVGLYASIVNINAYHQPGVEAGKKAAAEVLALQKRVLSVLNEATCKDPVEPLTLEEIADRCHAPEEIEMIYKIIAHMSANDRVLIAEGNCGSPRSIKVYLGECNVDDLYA", "test": "G6PDH-coupled spectrophotometric assay, non-linear least squares fit", "conditions": "F6P to G6P direction, F6P 0-0.98 mM, 50 mM bicine pH 7.8, 4.8 mM DTT, 0.6 mM NADP+, read-out: F6P G6P / Plastidic PGI", "from_the_text": "G6PDH-coupled spectrophotometric assay, non-linear least squares fit on plastidic AtPGI (PGI1)"}, "cytosolic AtPGI (PGI2) [2]": {"target": "T2, cytosolic AtPGI (PGI2) (Arabidopsis thaliana, UniProt P34795)", "T2 construct": "gene PGIC; N-terminal His-tag, pET11a, E. coli BL21, Ni-NTA purified", "T2 sequence (P34795 1-560)": "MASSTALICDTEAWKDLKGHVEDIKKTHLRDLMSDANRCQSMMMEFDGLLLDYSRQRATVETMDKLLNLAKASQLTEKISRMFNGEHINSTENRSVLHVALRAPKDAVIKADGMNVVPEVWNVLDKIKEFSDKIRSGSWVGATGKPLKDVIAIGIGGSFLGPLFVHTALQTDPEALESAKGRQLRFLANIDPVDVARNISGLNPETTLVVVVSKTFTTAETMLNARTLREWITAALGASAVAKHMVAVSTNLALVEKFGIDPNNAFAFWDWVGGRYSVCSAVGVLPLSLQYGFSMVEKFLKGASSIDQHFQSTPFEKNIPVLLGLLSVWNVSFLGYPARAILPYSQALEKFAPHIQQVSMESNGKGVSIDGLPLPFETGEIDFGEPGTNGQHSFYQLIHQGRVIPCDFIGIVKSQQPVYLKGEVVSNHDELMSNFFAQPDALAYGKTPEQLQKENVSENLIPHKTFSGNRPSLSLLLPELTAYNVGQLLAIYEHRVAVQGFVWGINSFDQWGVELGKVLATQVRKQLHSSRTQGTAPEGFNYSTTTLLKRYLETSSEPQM", "test": "G6PDH-coupled spectrophotometric assay, non-linear least squares fit", "conditions": "F6P to G6P direction, F6P 0-0.98 mM, 50 mM bicine pH 7.8, 4.8 mM DTT, 0.6 mM NADP+, read-out: F6P G6P / Cytosolic PGI", "from_the_text": "G6PDH-coupled spectrophotometric assay, non-linear least squares fit on cytosolic AtPGI (PGI2)"}, "cytosolic AtPGI (PGI2) [3]": {"target": "T2, cytosolic AtPGI (PGI2)", "test": "G6PDH-coupled spectrophotometric assay, Hill function fit", "conditions": "F6P to G6P direction; 50 mM bicine pH 7.8, 4.8 mM DTT, 0.6 mM NADP+; table and text disagree, table columns possibly interchanged; read-out: F6P G6P / Cytosolic PGI", "from_the_text": "G6PDH-coupled spectrophotometric assay, Hill function fit on cytosolic AtPGI (PGI2)"}, "plastidic SoPGI": {"target": "T3, plastidic SoPGI (Spinacia oleracea, UniProt O82058)", "T3 construct": "gene GPIP; native, lysed Percoll-isolated chloroplasts from market spinach leaves, light or dark treated", "T3 sequence (O82058 51-618)": "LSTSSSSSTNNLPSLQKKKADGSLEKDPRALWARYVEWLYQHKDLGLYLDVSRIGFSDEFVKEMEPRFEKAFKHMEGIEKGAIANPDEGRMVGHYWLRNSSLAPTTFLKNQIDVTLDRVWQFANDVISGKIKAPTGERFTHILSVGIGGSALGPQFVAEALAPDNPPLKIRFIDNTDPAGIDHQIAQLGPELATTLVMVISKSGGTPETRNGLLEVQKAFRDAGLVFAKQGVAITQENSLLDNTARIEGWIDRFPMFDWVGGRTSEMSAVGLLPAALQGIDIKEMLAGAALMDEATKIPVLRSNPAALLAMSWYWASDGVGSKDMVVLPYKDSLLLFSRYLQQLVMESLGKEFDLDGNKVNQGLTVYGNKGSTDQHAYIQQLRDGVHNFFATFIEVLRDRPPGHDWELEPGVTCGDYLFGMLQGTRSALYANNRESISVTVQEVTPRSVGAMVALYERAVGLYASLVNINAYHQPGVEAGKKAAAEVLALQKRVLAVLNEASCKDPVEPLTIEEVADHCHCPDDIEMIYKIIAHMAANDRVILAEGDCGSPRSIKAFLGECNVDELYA", "test": "PGI assay on lysed isolated chloroplasts", "conditions": "F6P to G6P direction; light-treated leaves (dark-treated also measured)"}, "plastidic AtPGI (PGI1) [4]": {"target": "T1, plastidic AtPGI (PGI1)", "test": "G6PDH-coupled spectrophotometric assay, Hill function fit", "conditions": "F6P to G6P direction; 50 mM bicine pH 7.8, 4.8 mM DTT, 0.6 mM NADP+; read-out: F6P G6P / Plastidic PGI", "from_the_text": "G6PDH-coupled spectrophotometric assay, Hill function fit on plastidic AtPGI (PGI1)"}, "plastidic AtPGI (PGI1) [5]": {"target": "T1, plastidic AtPGI (PGI1)", "test": "phosphofructokinase-coupled LC-MS/MS assay of FBP, Hill function fit", "conditions": "G6P to F6P direction; 50 mM Tris pH 7.8, 2.5 mM MgCl2, 1 mM ATP, 5 mM DTT; table and text ratio disagree, table columns possibly interchanged; read-out: G6P F6P / Plastidic PGI", "from_the_text": "phosphofructokinase-coupled LC-MS/MS assay of FBP, Hill function fit on plastidic AtPGI (PGI1)"}, "cytosolic AtPGI (PGI2) [6]": {"target": "T2, cytosolic AtPGI (PGI2)", "test": "phosphofructokinase-coupled LC-MS/MS assay of FBP, Hill function fit", "conditions": "G6P to F6P direction; 50 mM Tris pH 7.8, 2.5 mM MgCl2, 1 mM ATP, 5 mM DTT; read-out: G6P F6P / Cytosolic PGI", "from_the_text": "phosphofructokinase-coupled LC-MS/MS assay of FBP, Hill function fit on cytosolic AtPGI (PGI2)"}, "[7]": {"conditions": "competitive with F6P except above 1.0 mM"}},
  "note": "Where two headings read alike, the source gives them in different places.",
  "data": [
    {"smiles": "O=C(O)[C@H](O)[C@@H](O)[C@H](O)[C@H](O)COP(=O)(O)O", "note": "[6PG, 6-phosphogluconate]", "values": [
      {"measurement": "Ki", "setting": "plastidic AtPGI (PGI1) [1]; [7]", "value": 31, "unit": "µM"},
      {"measurement": "Ki", "setting": "cytosolic AtPGI (PGI2) [2]; [7]", "value": 106, "unit": "µM"}
    ]},
    {"smiles": "O=C[C@H](O)[C@H](O)COP(=O)(O)O", "note": "[E4P, erythrose 4-phosphate]", "values": [
      {"measurement": "Ki", "setting": "plastidic AtPGI (PGI1) [1]", "value": 2.3, "unit": "µM"},
      {"measurement": "Ki", "setting": "cytosolic AtPGI (PGI2) [2]", "value": 1.5, "unit": "µM"}
    ]},
    {"smiles": "O=P(O)(O)OC[C@H]1OC(O)(CO)[C@@H](O)[C@@H]1O", "note": "(stereo partly drawn) [F6P, fructose 6-phosphate]", "values": [
      {"measurement": "Km", "setting": "cytosolic AtPGI (PGI2) [3]", "value": "203 ± 12", "unit": "µM"},
      {"measurement": "Km", "setting": "plastidic SoPGI", "value": "The Km of SoPGI for F6P did not change in the light or dark"},
      {"measurement": "Km", "setting": "plastidic AtPGI (PGI1) [4]", "value": "73 ± 80", "unit": "µM"}
    ]},
    {"smiles": "O=P(O)(O)OC[C@H]1OC(O)[C@H](O)[C@@H](O)[C@@H]1O", "note": "(stereo partly drawn) [G6P, glucose 6-phosphate]", "values": [
      {"measurement": "Km", "setting": "plastidic AtPGI (PGI1) [5]", "value": "164 ± 43", "unit": "µM"},
      {"measurement": "Km", "setting": "cytosolic AtPGI (PGI2) [6]", "value": "158 ± 85", "unit": "µM"}
    ]}
  ]
}
